Target: T1, KRAS G12C (GMPPNP-loaded) and cRAF Ras-binding domain (Homo sapiens, UniProt P01116, C118S/C51S/C80L/G12C)
T1 construct: truncated version comprising amino acids 1-169
Test: Inhibition of KRAS G12C and cRAF binding (AlphaScreen)
Details: KRAS G12C preloaded with GTP analogue GMPPNP, 2 hours preincubation
In short: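 Compounds (10-point, 1:3 from 50 μM; 2% DMSO) were incubated 2 h at room temperature with 0.5 nM GMPPNP-preloaded truncated Cys-light KRAS G12C, then 60-90 min with 0.75 nM GST-RBD of cRAF and AlphaScreen beads. Signal at 570 nm gave IC50 by 4-parameter regression, and a biotin-AviTag-GST counter assay excluded interference with the AlphaScreen readout.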

T1 sequence (P01116 1-169 isoform P01116-2 G12C/C51S/C80L/C118S): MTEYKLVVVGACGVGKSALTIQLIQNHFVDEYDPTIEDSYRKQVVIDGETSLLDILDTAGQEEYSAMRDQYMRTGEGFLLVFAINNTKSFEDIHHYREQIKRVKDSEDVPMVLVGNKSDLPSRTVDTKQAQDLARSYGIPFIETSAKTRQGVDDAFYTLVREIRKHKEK

Row | SMILES | IC50 [nM]
1 | CN(CC1CN(C(=O)/C=C/c2nc(C(C)(F)F)no2)C1)c1nc(OC[C@@]23CCCN2C[C@H](F)C3)nc2c(F)c(-c3nc(N)cc4cccc(Cl)c34)ncc12 [Example 169, (E)-1-(3-(((7-(3-amino-8-chloroisoquinolin-1-yl)-8-fluoro-2-(((2R,7aS)-2-fluorotetrahydro-1H-pyrrolizin-7a(5H)-yl)methoxy)pyrido[4,3-d]pyrimidin-4-yl)(methyl)amino)methyl)azetidin-1-yl)-3-(3-(1,1-difluoroethyl)-1,2,4-oxadiazol-5-yl)prop-2-en-1-one] | < 10
2 | C=CC(=O)N1CC[C@@H](N(C)c2nc(OC[C@@]34CCCN3C[C@H](F)C4)nc3c(F)c(-c4cccc(Cl)c4C(F)(F)F)ncc23)[C@H]1C (single isomer, unassigned) [Example 78] | 10 to 100
3 | Cc1cc(N)nc(-c2ncc3c(N(C)[C@@H]4CCN(C(=O)/C=C/c5nc(C(C)(F)F)no5)C4)nc(OC[C@@]45CCCN4C[C@H](F)C5)nc3c2F)c1C(F)(F)F [Example 56, (E)-1-((R)-3-((7-(6-amino-4-methyl-3-(trifluoromethyl)pyridin-2-yl)-8-fluoro-2-(((2R,7aS)-2-fluorotetrahydro-1H-pyrrolizin-7a(5H)-yl)methoxy)pyrido[4,3-d]pyrimidin-4-yl)(methyl)amino)pyrrolidin-1-yl)-3-(3-(1,1-difluoroethyl)-1,2,4-oxadiazol-5-yl)prop-2-en-1-one] | < 10
4 | C=CC(=O)N1CC[C@@H](N(C)c2nc(OC[C@@]34CCCN3C[C@H](F)C4)nc3c(F)c(-c4cc(N)nc(C)c4C(F)(F)F)ncc23)C1 [Example 107, 1-((R)-3-((7-(6-amino-2-methyl-3-(trifluoromethyl)pyridin-4-yl)-8-fluoro-2-(((2R,7aS)-2-fluorotetrahydro-1H-pyrrolizin-7a(5H)-yl)methoxy)pyrido[4,3-d]pyrimidin-4-yl)(methyl)amino)pyrrolidin-1-yl)prop-2-en-1-one] | 10 to 100
5 | C=CC(=O)N1CC(CN(C)c2nc(OC[C@@]34CCCN3C[C@H](F)C4)nc3c(F)c(-c4nc(N)cc(C)c4C4CC4)ncc23)C1 [Example 133, 1-(3-(((7-(6-amino-3-cyclopropyl-4-methylpyridin-2-yl)-8-fluoro-2-(((2R,7aS)-2-fluorotetrahydro-1H-pyrrolizin-7a(5H)-yl)methoxy)pyrido[4,3-d]pyrimidin-4-yl)(methyl)amino)methyl)azetidin-1-yl)prop-2-en-1-one] | ≥ 500
6 | C=CC(=O)N1CC[C@@H](N(C)c2nc(OC[C@@]34CCCN3C[C@H](F)C4)nc3c2C[C@@H](C)[C@H](c2nc(N)cc(C)c2C(F)(F)F)C3)C1 [Example 59, 1-((R)-3-(((6R,7R)-7-(6-amino-4-methyl-3-(trifluoromethyl)pyridin-2-yl)-2-(((2R,7aS)-2-fluorohexahydro-1H-pyrrolizin-7a-yl)methoxy)-6-methyl-5,6,7,8-tetrahydroquinazolin-4-yl)(methyl)amino)pyrrolidin-1-yl)prop-2-en-1-one] | 100 to 500
7 | Cc1cc(/C=C/C(=O)N2CC[C@@H](N(C)c3nc(OC[C@@]45CCCN4C[C@H](F)C5)nc4c(F)c(-c5cccc(Cl)c5C5CC5)ncc34)C2)nc(C)n1 [Example 247] | 100 to 500
8 | Cc1nsc(/C=C/C(=O)N2CC(CN(C)c3nc(OC[C@@]45CCCN4C[C@H](F)C5)nc4c3C[C@@H](C)[C@H](c3nc(N)cc(C)c3C(F)(F)F)C4)C2)n1 (single isomer, unassigned) [Example 126] | 10 to 100
9 | C=CC(=O)N1CC[C@@H](N(C)c2nc(OC[C@@]34CCCN3C[C@H](F)C4)nc3c(F)c(-c4cccc5cn[nH]c45)ncc23)C1 [Example 264] | ≥ 500
10 | C=CC(=O)N1CC(CN(C)c2nc(OC[C@@]34CCCN3C[C@H](F)C4)nc3c2C[C@@H](C)[C@H](c2nc(N)cc(C)c2C(F)(F)F)C3)C1 (single isomer, unassigned) [Example 58] | 100 to 500
11 | Cc1cc(/C=C/C(=O)N2CC(CN(C)c3nc(OC[C@@]45CCCN4C[C@H](F)C5)nc4c(F)c(-c5cccc(Cl)c5C5CC5)ncc34)C2)nc(C)n1 [Example 200] | 100 to 500
12 | CC(C)c1noc(/C=C/C(=O)N2CC[C@@H](N(C)c3nc(OC[C@@]45CCCN4C[C@H](F)C5)nc4c(F)c(-c5nc(N)ccc5C(F)(F)F)ncc34)C2)n1 [Example 47, (E)-1-((R)-3-((7-(6-amino-3-(trifluoromethyl)pyridin-2-yl)-8-fluoro-2-(((2R,7aS)-2-fluorotetrahydro-1H-pyrrolizin-7a(5H)-yl)methoxy)pyrido[4,3-d]pyrimidin-4-yl)(methyl)amino)pyrrolidin-1-yl)-3-(3-isopropyl-1,2,4-oxadiazol-5-yl)prop-2-en-1-one] | 10 to 100
13 | Cc1noc(/C=C/C(=O)N2CC[C@@H](N(C)c3nc(OCC45CCCN4CCC5)nc4c3C[C@@H](C)[C@H](c3nc(N)cc(C)c3C(F)(F)F)C4)C2)n1 (single isomer, unassigned) [Compound 9] | 100 to 500
14 | Cc1cc(N)nc(-c2ncc3c(N(C)[C@@H]4CCN(C(=O)/C=C/c5nc(C(C)C)no5)C4)nc(OC[C@@]45CCCN4C[C@H](F)C5)nc3c2F)c1C(F)(F)F [Example 71, (E)-1-((R)-3-((7-(6-amino-4-methyl-3-(trifluoromethyl)pyridin-2-yl)-8-fluoro-2-(((2R,7aS)-2-fluorotetrahydro-1H-pyrrolizin-7a(5H)-yl)methoxy)pyrido[4,3-d]pyrimidin-4-yl)(methyl)amino)pyrrolidin-1-yl)-3-(3-isopropyl-1,2,4-oxadiazol-5-yl)prop-2-en-1-one] | < 10
15 | CN1CC[C@@H]1/C=C/C(=O)N1CC[C@@H](N(C)c2nc(OC[C@@]34CCCN3C[C@H](F)C4)nc3c(F)c(-c4nc(N)cc5cccc(Cl)c45)ncc23)C1 [Example 99] | < 10
16 | Cc1cc(/C=C/C(=O)N2CC[C@@H](N(C)c3nc(OC[C@@]45CCCN4C[C@H](F)C5)nc4c(F)c(-c5cc(O)cc(Cl)c5C5CC5)ncc34)C2)nc(C)n1 [Example 201] | < 10
17 | Cc1cc(N)nc(-c2ncc3c(N(C)[C@@H]4CCN(C(=O)/C=C/[C@H]5CCN5C)C4)nc(OC[C@@]45CCCN4C[C@H](F)C5)nc3c2F)c1C(F)(F)F (single isomer, unassigned) [Example 26] | < 10

Row | SMILES | IC50 [nM]
18 | Cc1cc(N)nc(N2CCc3c(nc(OC[C@@]45CCCN4C[C@H](F)C5)nc3N(C)[C@@H]3CCN(C#N)C3)C2)c1C(F)(F)F [Example 203] | ≥ 500
19 | C=CC(=O)N1CC[C@@H](N(C)c2nc(OC[C@@]34CCCN3C[C@H](F)C4)nc3c(F)c(-c4cc(C(F)F)cc(Cl)c4C4CC4)ncc23)C1 [Example 263] | ≥ 500
20 | C=CC(=O)N1CC[C@@H](N(C)c2nc(OC[C@@]34CCCN3C[C@H](F)C4)nc3c(F)c(-c4ccc(F)c(F)c4C4CC4)ncc23)C1 [Example 202] | ≥ 500
21 | C=CC(=O)N1CC[C@@H](N(C)c2nc(OCC34CCCN3CCC4)nc3c2C[C@H](C)[C@@H](c2nc(N)cc(C)c2C(F)(F)F)C3)C1 (single isomer, unassigned) [Example 18] | 100 to 500
22 | CN1CC[C@@H]1/C=C/C(=O)N1CC[C@@H](N(C)c2nc(OC[C@@]34CCCN3C[C@H](F)C4)nc3c(F)c(-c4nc(N)cc5cccc(F)c45)ncc23)C1 (single isomer, unassigned) [Example 7] | < 10
23 | C=CC(=O)N1CC(CN(C)c2nc(OC[C@@]34CCCN3C[C@H](F)C4)nc3c2CC(C)C(c2nc(N)cc(C)c2C(F)(F)F)C3)C1 (stereo partly drawn) [Example 67, 1-(3-(((7-(6-amino-4-methyl-3-(trifluoromethyl)pyridin-2-yl)-2-(((2R,7aS)-2-fluorohexahydro-1H-pyrrolizin-7a-yl)methoxy)-6-methyl-5,6,7,8-tetrahydroquinazolin-4-yl)(methyl)amino)methyl)azetidin-1-yl)prop-2-en-1-one] | ≥ 500
24 | C=CC(=O)N1CC[C@@H](N(C)c2nc(OC[C@@]34CCCN3C[C@H](F)C4)nc3c(F)c(-c4c(O)cccc4Cl)ncc23)C1 [Example 229] | ≥ 500
25 | CN(c1nc(OC[C@@]23CCCN2C[C@H](F)C3)nc2c(F)c(-c3cccc(Cl)c3C3CC3)ncc12)[C@@H]1CCN(C(=O)/C=C/CN2[C@@H]3CC[C@H]2COC3)C1 [Example 241] | 10 to 100
26 | C=CC(=O)N1CC[C@@H](N(C)c2nc(OCC34CCCN3CCC4)nc3c(F)c(-c4nc(N)cc5cccc(F)c45)ncc23)C1 [Example 75, (R)-1-(3-((7-(3-amino-8-fluoroisoquinolin-1-yl)-8-fluoro-2-((hexahydro-1H-pyrrolizin-7a-yl)methoxy)pyrido[4,3-d]pyrimidin-4-yl)(methyl)amino)pyrrolidin-1-yl)prop-2-en-1-one] | 100 to 500
27 | CN(c1nc(OC[C@@]23CCCN2C[C@H](F)C3)nc2c(F)c(-c3cccc(Cl)c3C3CC3)ncc12)[C@@H]1CCN(C(=O)C#C[C@]2(C)CCCN2)C1 [Example 193] | < 10
28 | C=CC(=O)N1CC[C@@H](N(C)c2nc(OC[C@@]34CCCN3C[C@H](F)C4)nc3c(F)c(-c4cncnc4C4CC4)ncc23)C1 [Example 260] | ≥ 500
29 | CO[C@H]1CCN(C/C=C/C(=O)N2CC[C@@H](N(C)c3nc(OC[C@@]45CCCN4C[C@H](F)C5)nc4c(F)c(-c5cccc(Cl)c5C5CC5)ncc34)C2)C1 [Example 210] | 10 to 100
30 | CN(C)CC#CC(=O)N1CC[C@@H](N(C)c2nc(OC[C@@]34CCCN3C[C@H](F)C4)nc3c(F)c(-c4nc(N)cc5cccc(F)c45)ncc23)C1 [Example 106] | < 10
31 | CN1CC[C@@H]1/C=C/C(=O)N1CC[C@@H](N(C)c2nc(OC[C@@]34CCCN3C[C@H](F)C4)nc3c(F)c(-c4nc(N)cc5cccc(Cl)c45)ncc23)C1 (single isomer, unassigned) [Example 3] | 10 to 100
32 | C=CC(=O)N1CC[C@@H](N(C)c2nc(OC[C@@]34CCCN3C[C@H](F)C4)nc3c(F)c(-c4ccccc4C(F)F)ncc23)C1 [Example 181] | ≥ 500
33 | CN(c1nc(OC[C@@]23CCCN2C[C@H](F)C3)nc2c(F)c(-c3cccc(Cl)c3C3CC3)ncc12)[C@@H]1CCN(C(=O)/C=C/CN2C[C@@H]3C[C@H]2CO3)C1 [Example 231] | 10 to 100

Reference: patent US20260256789A1, “METHODS FOR TREATMENT OF CANCER” (Frontier Medicines Corporation, priority 2022, published 2026)
